Where two headings read alike, the source gives them in different places.
Columns and labels:
[1] = tested on: human mononuclear cells (PBMC) stimulated with staphylococcal enterotoxin B (SEB); test: cells; assay type: cell-based
LFA-1 = target: T1, LFA-1 (Homo sapiens, UniProt P20701); settings: at greater than 90% occupancy of LFA-1; cited from earlier work
T1 construct: greater than 90% occupancy of LFA-1 with efalizumab led to a greater than 50% clinical improvement in PASI score in a clinical trial; host or cells: leukocytes of psoriasis patients (in vivo)
T1 sequence (P20701 26-1170): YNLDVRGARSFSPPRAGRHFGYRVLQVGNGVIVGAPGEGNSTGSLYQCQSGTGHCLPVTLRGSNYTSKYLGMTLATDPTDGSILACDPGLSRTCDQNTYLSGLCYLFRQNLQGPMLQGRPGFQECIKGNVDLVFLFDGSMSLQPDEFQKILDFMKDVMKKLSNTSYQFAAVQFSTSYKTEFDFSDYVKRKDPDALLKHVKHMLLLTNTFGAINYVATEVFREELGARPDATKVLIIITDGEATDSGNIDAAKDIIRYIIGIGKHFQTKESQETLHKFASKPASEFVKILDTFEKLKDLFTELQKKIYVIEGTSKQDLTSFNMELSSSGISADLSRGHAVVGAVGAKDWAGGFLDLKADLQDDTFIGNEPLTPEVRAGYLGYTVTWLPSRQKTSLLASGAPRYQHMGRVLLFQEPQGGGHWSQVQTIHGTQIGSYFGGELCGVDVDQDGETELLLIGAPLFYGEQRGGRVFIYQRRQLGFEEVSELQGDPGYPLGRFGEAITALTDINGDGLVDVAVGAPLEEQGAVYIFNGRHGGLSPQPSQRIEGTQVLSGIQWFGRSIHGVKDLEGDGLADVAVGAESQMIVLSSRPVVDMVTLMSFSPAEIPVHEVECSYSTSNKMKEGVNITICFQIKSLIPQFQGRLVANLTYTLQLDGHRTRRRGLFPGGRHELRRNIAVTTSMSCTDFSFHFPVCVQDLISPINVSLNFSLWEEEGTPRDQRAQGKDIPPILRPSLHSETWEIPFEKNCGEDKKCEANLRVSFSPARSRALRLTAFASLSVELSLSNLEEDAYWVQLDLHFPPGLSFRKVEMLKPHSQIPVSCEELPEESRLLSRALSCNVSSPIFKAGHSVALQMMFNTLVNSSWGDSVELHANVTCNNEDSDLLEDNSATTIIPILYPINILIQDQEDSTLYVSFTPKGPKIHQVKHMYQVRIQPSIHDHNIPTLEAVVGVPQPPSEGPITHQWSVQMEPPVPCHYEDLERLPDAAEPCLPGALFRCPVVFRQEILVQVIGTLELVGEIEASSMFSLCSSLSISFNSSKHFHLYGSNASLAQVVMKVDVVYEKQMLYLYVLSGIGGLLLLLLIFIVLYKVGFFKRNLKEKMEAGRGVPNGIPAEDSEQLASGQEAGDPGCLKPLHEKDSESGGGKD
T1 sequence (P05107 23-769 partner): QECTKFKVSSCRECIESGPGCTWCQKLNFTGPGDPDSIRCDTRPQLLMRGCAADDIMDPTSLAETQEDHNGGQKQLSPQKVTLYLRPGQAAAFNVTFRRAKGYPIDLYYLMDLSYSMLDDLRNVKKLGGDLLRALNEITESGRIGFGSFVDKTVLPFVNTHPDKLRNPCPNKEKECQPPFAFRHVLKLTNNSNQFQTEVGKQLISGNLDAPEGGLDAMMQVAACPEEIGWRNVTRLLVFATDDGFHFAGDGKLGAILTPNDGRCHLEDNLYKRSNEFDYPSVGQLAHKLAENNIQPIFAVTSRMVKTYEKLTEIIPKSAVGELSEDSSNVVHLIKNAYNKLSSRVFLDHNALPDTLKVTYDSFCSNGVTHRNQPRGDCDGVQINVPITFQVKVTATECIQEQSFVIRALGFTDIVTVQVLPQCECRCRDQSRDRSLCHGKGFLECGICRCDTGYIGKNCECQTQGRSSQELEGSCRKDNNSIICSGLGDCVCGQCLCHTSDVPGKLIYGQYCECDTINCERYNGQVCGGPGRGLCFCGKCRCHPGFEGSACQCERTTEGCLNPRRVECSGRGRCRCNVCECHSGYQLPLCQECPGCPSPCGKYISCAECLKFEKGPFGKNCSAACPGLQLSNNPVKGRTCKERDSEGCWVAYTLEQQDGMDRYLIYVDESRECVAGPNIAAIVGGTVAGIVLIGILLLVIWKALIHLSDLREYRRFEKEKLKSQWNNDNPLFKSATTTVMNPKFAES

Compound	EC50 ([1]; read-out: EC50 Cytokine Release GM-CSF)	EC50 ([1]; read-out: EC50 Cytokine Release IFNγ)	EC50 ([1]; read-out: EC50 Cytokine Release IL-1α)	EC50 ([1]; read-out: EC50 Cytokine Release IL-1β)	EC50 ([1]; read-out: EC50 Cytokine Release IL-2)	EC50 ([1]; read-out: EC50 Cytokine Release IL-3)	EC50 ([1]; read-out: EC50 Cytokine Release IL-4)	EC50 ([1]; read-out: EC50 Cytokine Release IL-5)	EC50 ([1]; read-out: EC50 Cytokine Release IL-6)	EC50 ([1]; read-out: EC50 Cytokine Release IL-10)	EC50 ([1]; read-out: EC50 Cytokine Release IL-12p40)	EC50 ([1]; read-out: EC50 Cytokine Release IL-13)	EC50 ([1]; read-out: EC50 Cytokine Release IP-10)	EC50 ([1]; read-out: EC50 Cytokine Release MCP-1)	EC50 ([1]; read-out: EC50 Cytokine Release MIP-1α)	EC50 ([1]; read-out: EC50 Cytokine Release TNF-α)	clinical improvement in PASI score (LFA-1)
O=C(NC(Cc1cc(=O)[nH]c2ccccc12)C(=O)O)c1ccc(Cl)cc1 (centres unmarked) [Rebamipide, reference compound]	> 1000 µM	> 1000 µM	> 1000 µM	> 1000 µM	> 1000 µM	> 1000 µM	> 1000 µM	> 1000 µM	> 1000 µM	> 1000 µM	> 1000 µM	> 1000 µM	> 1000 µM	> 1000 µM	> 1000 µM	> 1000 µM	–
efalizumab: antibody binding LFA-1, clinical trial in plaque psoriasis	–	–	–	–	–	–	–	–	–	–	–	–	–	–	–	–	greater than 50%

Reference: patent US20090258069A1, “Delivery of LFA-1 antagonists to the gastrointestinal system” (priority 2008, published 2009)
